Measurements taken from paper PMC6950750, “Newly Discovered Action of HpTx3 from Venom of Heteropoda venatoria on Nav1.7 and Its Pharmacological Implications in Analgesia” (Toxins, 2019).
Bridge positions count the residues as written; N and C are the ends. Peptide text beside a SMILES is read from it.

What was measured:
[1] = target: T1, Nav1.2 (Rattus norvegicus, UniProt P04775); assay: Whole-cell patch-clamp, Nav1.2 currents in HEK293T cells; format: cell-based
T1 construct: expressed in transfected cells; host or cells: HEK293T
From the text: (§1) All the used Nav channel subtype clones (Nav1.2–Nav1.9) and β subunit clones were preserved in our laboratory. cDNAs encoding rat Nav1.2, rat Nav1.3, human Nav1.5, and mouse Nav1.6 were subcloned into the vector pcDNA3.1; cDNA encoding rat Nav1.4 was subcloned into the vector pRGB4; cDNA encoding human Nav1.7 was subcloned into the vector pcDNA3.1-mod; cDNAs encoding rat Nav1.8 and human Nav1.9 were subcloned into the vectors pCMV-HA and pEGFP-N1, respectively. For localizing the binding sites of HpTx3 on the Nav1.7 and therefore probing the its mechanism of action, several chimeras were constructed with a recombination strategy by replacing the extracellular loop S3b–S4 in domain II, domain III, and domain IV of Nav1.7 with the counterpart sequences of Nav1.8, respectively, using the methods described. As a result, three chimeras were prepared, namely, Nav1.7/1.8DIIS3b–S4, Nav1.7/1.8DIII, and Nav1.7/1.8 DIV. […]
(§2) For heterologous expression, the vector plasmids containing wild-type (WT) Nav1.2–Nav1.7 and mutant plasmids were transiently transfected into HEK293T cells (China Center for Type Culture Collection, Wuhan, China) using Lipofectamine 2000 (Invitrogen, Carlsbad, CA, USA) according to the manufacturer’s instructions. […] The cells with green fluorescence were selected for whole-cell patch-clamp analysis 24 h after transfection. […]

[2] = target: T2, Nav1.6 (Mus musculus, UniProt Q9WTU3); assay: Whole-cell patch-clamp, Nav1.6 currents in HEK293T cells; format: cell-based; conditions: HEK-293T, 1 μM HpTx3, n = 4–6
T2 construct: expressed in transfected cells; host or cells: HEK293T
From the text: as §1, §2

[3] = target: T3, Nav1.3 (Rattus norvegicus, UniProt P08104); assay: Whole-cell patch-clamp, Nav1.3 currents in HEK293T cells; format: cell-based
T3 construct: expressed in transfected cells; host or cells: HEK293T
From the text: as §1, §2

[4] = target: T4, Nav1.7 D816N (Homo sapiens, UniProt Q15858, D827N); assay: Whole-cell patch-clamp, mutant Nav1.7 D816N; format: cell-based
T4 construct: expressed in transfected cells; host or cells: HEK293T
T4 sequence (Q15858 other isoform, or with tags, fused parts or gaps D816N): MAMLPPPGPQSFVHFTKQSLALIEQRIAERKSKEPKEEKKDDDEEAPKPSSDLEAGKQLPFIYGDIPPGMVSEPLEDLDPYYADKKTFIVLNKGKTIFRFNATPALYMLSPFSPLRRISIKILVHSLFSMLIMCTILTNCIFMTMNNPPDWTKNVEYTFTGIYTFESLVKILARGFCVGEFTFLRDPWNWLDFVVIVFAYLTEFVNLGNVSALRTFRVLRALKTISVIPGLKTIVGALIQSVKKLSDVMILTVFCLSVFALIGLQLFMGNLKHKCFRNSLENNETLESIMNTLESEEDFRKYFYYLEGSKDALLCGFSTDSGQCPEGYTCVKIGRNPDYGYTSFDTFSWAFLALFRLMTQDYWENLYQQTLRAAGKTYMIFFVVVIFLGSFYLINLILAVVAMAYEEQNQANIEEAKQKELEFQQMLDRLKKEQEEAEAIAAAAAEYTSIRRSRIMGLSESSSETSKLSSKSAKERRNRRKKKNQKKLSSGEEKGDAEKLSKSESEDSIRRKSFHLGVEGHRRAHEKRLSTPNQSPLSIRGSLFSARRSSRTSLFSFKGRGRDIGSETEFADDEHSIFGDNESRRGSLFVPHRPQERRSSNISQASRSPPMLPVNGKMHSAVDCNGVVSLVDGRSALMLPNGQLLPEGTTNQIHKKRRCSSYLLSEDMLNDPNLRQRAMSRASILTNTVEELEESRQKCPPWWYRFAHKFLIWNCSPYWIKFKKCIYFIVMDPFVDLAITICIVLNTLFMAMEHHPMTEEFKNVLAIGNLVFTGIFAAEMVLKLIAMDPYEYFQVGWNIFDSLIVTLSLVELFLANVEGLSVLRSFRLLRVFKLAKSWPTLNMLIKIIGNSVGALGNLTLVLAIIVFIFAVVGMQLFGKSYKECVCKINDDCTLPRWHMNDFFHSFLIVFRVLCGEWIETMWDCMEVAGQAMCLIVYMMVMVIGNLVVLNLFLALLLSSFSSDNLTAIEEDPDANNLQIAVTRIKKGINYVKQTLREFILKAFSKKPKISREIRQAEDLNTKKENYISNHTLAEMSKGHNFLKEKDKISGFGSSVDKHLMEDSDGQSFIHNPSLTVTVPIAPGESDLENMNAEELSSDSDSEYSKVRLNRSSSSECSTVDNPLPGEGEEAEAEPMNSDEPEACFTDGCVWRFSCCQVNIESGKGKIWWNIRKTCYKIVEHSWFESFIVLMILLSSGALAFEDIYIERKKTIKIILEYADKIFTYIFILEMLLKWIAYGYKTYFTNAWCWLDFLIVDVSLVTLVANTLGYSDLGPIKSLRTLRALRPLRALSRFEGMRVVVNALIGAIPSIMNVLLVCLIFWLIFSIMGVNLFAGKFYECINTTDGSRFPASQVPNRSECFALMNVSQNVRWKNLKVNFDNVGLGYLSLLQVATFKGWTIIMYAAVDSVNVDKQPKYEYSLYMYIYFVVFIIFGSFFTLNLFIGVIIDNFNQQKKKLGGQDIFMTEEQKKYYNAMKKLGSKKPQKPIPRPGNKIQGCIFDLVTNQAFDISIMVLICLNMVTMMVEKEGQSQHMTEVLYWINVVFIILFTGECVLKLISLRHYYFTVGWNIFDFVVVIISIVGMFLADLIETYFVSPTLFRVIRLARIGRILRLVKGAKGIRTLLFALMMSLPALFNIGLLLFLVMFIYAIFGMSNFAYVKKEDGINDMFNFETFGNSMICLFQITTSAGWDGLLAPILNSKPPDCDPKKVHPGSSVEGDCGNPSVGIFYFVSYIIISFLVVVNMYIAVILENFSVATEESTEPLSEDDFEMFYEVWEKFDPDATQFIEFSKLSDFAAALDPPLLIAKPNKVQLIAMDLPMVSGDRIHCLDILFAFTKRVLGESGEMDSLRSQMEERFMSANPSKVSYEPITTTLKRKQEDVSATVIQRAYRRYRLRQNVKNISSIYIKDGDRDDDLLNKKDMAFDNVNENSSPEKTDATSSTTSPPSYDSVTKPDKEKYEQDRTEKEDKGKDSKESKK
T4 sequence (Q07699 19-218, further chain): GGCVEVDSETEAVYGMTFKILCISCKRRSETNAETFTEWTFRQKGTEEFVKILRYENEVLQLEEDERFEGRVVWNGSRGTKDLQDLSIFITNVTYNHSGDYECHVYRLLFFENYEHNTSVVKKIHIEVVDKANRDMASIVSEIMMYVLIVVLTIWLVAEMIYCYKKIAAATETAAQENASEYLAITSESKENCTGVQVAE
T4 sequence (O60939 30-215, further chain): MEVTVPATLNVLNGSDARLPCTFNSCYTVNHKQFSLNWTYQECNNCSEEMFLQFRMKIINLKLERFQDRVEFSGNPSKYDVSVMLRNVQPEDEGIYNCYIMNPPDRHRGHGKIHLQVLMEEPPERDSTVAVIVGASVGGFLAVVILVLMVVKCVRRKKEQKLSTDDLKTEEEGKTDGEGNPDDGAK
From the text: All the used Nav channel subtype clones (Nav1.2–Nav1.9) and β subunit clones were preserved in our laboratory. cDNAs encoding rat Nav1.2, rat Nav1.3, human Nav1.5, and mouse Nav1.6 were subcloned into the vector pcDNA3.1; cDNA encoding rat Nav1.4 was subcloned into the vector pRGB4; cDNA encoding human Nav1.7 was subcloned into the vector pcDNA3.1-mod; cDNAs encoding rat Nav1.8 and human Nav1.9 were subcloned into the vectors pCMV-HA and pEGFP-N1, respectively. For localizing the binding sites of HpTx3 on the Nav1.7 and therefore probing the its mechanism of action, several chimeras were constructed with a recombination strategy by replacing the extracellular loop S3b–S4 in domain II, domain III, and domain IV of Nav1.7 with the counterpart sequences of Nav1.8, respectively, using the methods described. As a result, three chimeras were prepared, namely, Nav1.7/1.8DIIS3b–S4, Nav1.7/1.8DIII, and Nav1.7/1.8 DIV. Moreover, the amino acid residues D816 and E818 in the S3b–S4 sequence of Nav1.7 were mutated into N (Nav1.7 D816N) and Q (Nav1.7 […]), respectively.
For heterologous expression, the vector plasmids containing wild-type (WT) Nav1.2–Nav1.7 and mutant plasmids were transiently transfected into HEK293T cells (China Center for Type Culture Collection, Wuhan, China) using Lipofectamine 2000 (Invitrogen, Carlsbad, CA, USA) according to the manufacturer’s instructions. […] The cells with green fluorescence were selected for whole-cell patch-clamp analysis 24 h after transfection.
The whole-cell patch-clamp technique was employed to analyze the effects of HpTx3 on Nav channel subtypes in the transfected HEK293T and ND7/23 cells using an EPC-10 USB patch-clamp amplifier (HEKA, Elektronik, Lambrecht, Germany). […] Data were collected with the PatchMaster software in the HEKA EPC-10 USB patch-clamp system (HEKA Elektronik, Lambrecht, Germany) and analyzed by the software Igo Pro-6.00, Prism (GraphPad Software, La Jolla, CA, USA), Sigmaplot 10.0 (Systat Software, Inc., San Jose, CA, USA), and OriginPro. […]

[5] = test system: hERG channel; assay: Whole-cell patch-clamp, hERG channel in HEK293T cells; format: cell-based; conditions: 1 µM HpTx3, n = 3
Procedure: The effect of HpTx3 on the hERG channel expressed in HEK293T cells was assayed using the whole cell patch-clamp technique according to the previous method with some modifications. The bathing solution contained (in mM): HEPES 10, MgCl2 1, CaCl2 25, KCl 5, NaCl 50 (pH 7.4, adjusted with 1 M NaOH). The suction pipettes solution contained (in mM): MgCl2 2.5, KCl 140, EGTA 11, HEPES 10 (pH 7.2, adjusted with KOH). The osmotic pressure of the two solutions was adjusted to 280 ± 5 mOsm/L with sucrose. The currents of the hERG channel were induced at −40 mV after a test potential of +30 mV from a holding potential of −80 mV.

[6] = test system: C57BL/6 mice; assay: In vivo toxicity; parameters: species or system mouse (C57BL/6); conditions: 20 mg/kg i.p., 8 mice
Procedure: For detecting the potential in vivo toxicity of HpTx3, eight C57BL/6 mice were each intraperitoneally injected with HpTx3 at a dose of 20 mg/kg, which was 4-fold greater than the maximum dose (5 mg/kg) and 100-fold greater than the minimum dose (0.2 mg/kg) that were used in analgesic experiments.

[7] = target: T5, Nav1.5 (Homo sapiens, UniProt Q14524); assay: cell-based; format: cell-based
T5 construct: expressed in transfected cells; host or cells: HEK293T
T5 sequence (Q14524 whole entry): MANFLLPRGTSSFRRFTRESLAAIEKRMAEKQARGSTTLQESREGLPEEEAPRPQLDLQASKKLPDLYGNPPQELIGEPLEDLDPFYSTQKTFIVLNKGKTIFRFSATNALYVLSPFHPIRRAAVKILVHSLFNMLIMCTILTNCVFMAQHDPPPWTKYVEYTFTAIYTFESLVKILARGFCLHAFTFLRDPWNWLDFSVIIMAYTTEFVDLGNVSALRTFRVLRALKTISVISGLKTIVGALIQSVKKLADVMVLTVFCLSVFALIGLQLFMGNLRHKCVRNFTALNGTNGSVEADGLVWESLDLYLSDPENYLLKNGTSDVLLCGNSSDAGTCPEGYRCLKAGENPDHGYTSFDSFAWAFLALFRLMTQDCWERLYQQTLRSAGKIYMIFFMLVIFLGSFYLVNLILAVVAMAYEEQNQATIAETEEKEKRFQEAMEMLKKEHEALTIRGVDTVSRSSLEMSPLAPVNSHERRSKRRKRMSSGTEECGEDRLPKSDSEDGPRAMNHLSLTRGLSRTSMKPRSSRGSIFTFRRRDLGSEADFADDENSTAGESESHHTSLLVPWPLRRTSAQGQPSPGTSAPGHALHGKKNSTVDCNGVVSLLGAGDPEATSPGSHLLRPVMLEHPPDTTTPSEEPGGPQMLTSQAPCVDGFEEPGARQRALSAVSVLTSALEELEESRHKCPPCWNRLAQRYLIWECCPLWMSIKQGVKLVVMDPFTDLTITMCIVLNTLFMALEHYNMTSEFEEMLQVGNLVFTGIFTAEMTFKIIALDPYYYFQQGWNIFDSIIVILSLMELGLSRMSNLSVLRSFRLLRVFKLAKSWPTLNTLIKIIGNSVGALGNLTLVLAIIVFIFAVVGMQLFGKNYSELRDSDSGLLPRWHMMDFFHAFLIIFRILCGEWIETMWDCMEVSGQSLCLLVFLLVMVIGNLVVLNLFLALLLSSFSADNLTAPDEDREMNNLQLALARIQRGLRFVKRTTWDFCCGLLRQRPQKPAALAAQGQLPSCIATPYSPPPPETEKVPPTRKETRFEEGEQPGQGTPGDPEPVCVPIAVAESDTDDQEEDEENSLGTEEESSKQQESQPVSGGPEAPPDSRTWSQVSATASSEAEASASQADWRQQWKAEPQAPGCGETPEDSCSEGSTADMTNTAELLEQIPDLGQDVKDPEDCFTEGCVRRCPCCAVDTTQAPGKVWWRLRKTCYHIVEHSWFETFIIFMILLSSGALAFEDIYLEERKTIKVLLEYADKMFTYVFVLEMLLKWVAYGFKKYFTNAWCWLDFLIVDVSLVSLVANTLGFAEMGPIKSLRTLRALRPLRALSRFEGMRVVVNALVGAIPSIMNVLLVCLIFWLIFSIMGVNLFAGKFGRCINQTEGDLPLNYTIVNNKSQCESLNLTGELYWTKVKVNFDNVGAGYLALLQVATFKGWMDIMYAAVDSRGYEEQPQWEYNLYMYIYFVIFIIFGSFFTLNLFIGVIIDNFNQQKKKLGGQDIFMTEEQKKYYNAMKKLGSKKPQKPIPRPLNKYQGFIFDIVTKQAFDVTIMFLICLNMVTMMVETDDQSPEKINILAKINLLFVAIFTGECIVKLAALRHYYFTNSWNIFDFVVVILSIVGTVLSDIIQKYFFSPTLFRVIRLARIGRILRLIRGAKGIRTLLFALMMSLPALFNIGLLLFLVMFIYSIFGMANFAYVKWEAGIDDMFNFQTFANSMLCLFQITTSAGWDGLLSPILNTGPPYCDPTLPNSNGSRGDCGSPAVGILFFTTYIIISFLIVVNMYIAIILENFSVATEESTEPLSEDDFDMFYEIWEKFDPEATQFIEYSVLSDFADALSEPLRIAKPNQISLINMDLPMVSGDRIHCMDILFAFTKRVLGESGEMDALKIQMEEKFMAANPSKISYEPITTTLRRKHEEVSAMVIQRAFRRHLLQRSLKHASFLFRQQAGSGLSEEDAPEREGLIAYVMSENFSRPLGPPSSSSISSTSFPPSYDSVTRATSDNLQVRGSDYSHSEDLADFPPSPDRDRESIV
From the text: as §1, §2

[8] = target: T6, Nav1.4 (Rattus norvegicus, UniProt P15390); assay: Whole-cell patch-clamp, Nav1.4 currents in HEK293T cells; format: cell-based
T6 construct: expressed in transfected cells; host or cells: HEK293T
From the text: as §1, §2

[9] = target: T7, Nav1.7 (Homo sapiens, UniProt Q15858); assay: Whole-cell patch-clamp, Nav1.7 currents in HEK293T cells; format: cell-based; conditions: wild type Nav1.7, HEK293T, mean ± SD, n = 4–6
T7 construct: expressed in transfected cells; host or cells: HEK293T
T7 sequence (O60939 30-215): as the sequence (O60939 30-215, further chain) above
T7 sequence (Q07699 19-218, further chain): as the sequence (Q07699 19-218, further chain) above
T7 sequence (Q15858 other isoform, or with tags, fused parts or gaps): as the sequence (Q15858 other isoform, or with tags, fused parts or gaps D816N) above, with N816D counted along it
From the text: as §1, §2

[10] = test system: nociceptive neuron excitability; conditions: orofacial and other regions in patients; cited from earlier work
From the text: Kv4 channels are expressed predominately in the somata of small and large diameter nociceptors and the dorsal horn of the spinal cord, and all three Kv4 mRNA isoforms (Kv4.1–4.3) are expressed in whole DRG preparations. Overexpression of various components of the Kv4 complex attenuated DGR excitability and pain phenotypes of animals. The drugs that can increase A-type Kv ...

[11] = test system: C57BL/6 mice, CFA pain model; assay: Complete Freund’s adjuvant (CFA)-induced hyperalgesia; format: in vivo, mouse (C57BL/6); conditions: morphine 1 mg/kg i.m.
Procedure: (§3) Healthy female C57BL/6 mice (weighting 18–20 g) that were used for analgesic activity assay were obtained from the Experimental Animal Center of SLac-kinda (Changsha, China) and were randomly assigned to five groups, each group generally containing 8 mice. […] The mice were maintained at a temperature of 20–25 °C and under a 12 h light/12 h dark cycle, with free access to food and water. The ethical approval for the in vivo animal experiments was obtained from the Animal Care and Use Committee of the Hunan Province Animal Management Office. (The approval code: 219/2019).

[12] = test system: C57BL/6 mice, hot plate pain model; assay: Hot plate test; format: in vivo, mouse (C57BL/6); conditions: morphine 1 mg/kg i.p.
Procedure: as §3
Hot plate test was conducted according to the method described. The hot plate test apparatus (model YSL-21, Jinan, China) was placed in a quiet room, and the temperature was set at 55 ± 1 °C. After each mouse was placed at the hot plate, its nociceptive responses (hind-paw licking or jumping) and nociceptive threshold (paw withdrawal latency) were observed and recorded. […] The mice displaying abnormal baseline paw withdrawals (shorter than 5 s and longer than 30 s) were excluded from the test.

[13] = test system: C57BL/6 mice, formalin-induced pain model; assay: Formalin-induced paw licking; format: in vivo, mouse (C57BL/6); conditions: morphine 1 mg/kg i.m., n = 8
Procedure: as §3
The changes in the formalin-induced nociceptive reaction in mice was used to assess the in vivo effect of HpTx3 on Nav1.7-mediated pain [74, 77, 78]. Paw licking, a pain-related behavior, was induced by subcutaneous intraplantar injection of formalin. […] The time that was spent to lick the injected paw by each mouse during phase I (0–10 min after injection) and phase II (15–35 min after injection) was separately recorded with a digital stopwatch. The nociceptive behavior attenuation by HpTx3 was evaluated by comparison of the paw licking times of the mice in each group.

[14] = test system: C57BL/6 mice, SNI model; assay: Spared nerve injury (SNI) model; format: in vivo, mouse (C57BL/6); conditions: morphine 1 mg/kg; 18 days after surgery; control 0.47 g; n = 8
Procedure: as §3

[15] = test system: Nav1.7; conditions: cited from earlier work
From the text: In order to further understand the actions of HpTx3 on the Nav1.7 channel, we examined the effect of the toxin on the current–voltage (I–V) relationship of the Nav channel subtype. […] When the conductance–voltage (G–V) relationship and the steady-state inactivation of Nav1.7 before and after HpTx3 treatment were inve ...

[16] = test system: Nav1.1–1.8; conditions: cited from earlier work
[17] = test system: rodent models of acute and inflammatory pain; conditions: cited from earlier work
[18] = HEK293T, whole-cell patch-clamp, mean ± SD, n = 4–6
[19] = also ref 20 (HwTx-IV), 36 (HnTx-III), 37 (HnTx-IV)

Molecule: CC[C@H](C)[C@@H]1NC(=O)[C@H](Cc2ccccc2)NC(=O)CNC(=O)[C@H](CCC(=O)O)NC(=O)[C@@H]2CSSC[C@H](NC(=O)[C@@H](N)CCC(=O)O)C(=O)NCC(=O)N[C@@H]([C@@H](C)O)C(=O)N[C@@H](CC(C)C)C(=O)N[C@@H](Cc3ccccc3)C(=O)N[C@@H](CO)C(=O)NCC(=O)N[C@H]3CSSC[C@H](NC1=O)C(=O)N[C@@H](CCCCN)C(=O)N[C@@H](CC(C)C)C(=O)N[C@@H](Cc1c[nH]c4ccccc14)C(=O)N[C@H](C(=O)N[C@@H](CCCNC(=N)N)C(=O)N[C@@H](Cc1ccc(O)cc1)C(=O)N[C@@H](CCC(=O)O)C(=O)N[C@@H](CCCNC(=N)N)C(=O)N[C@H](C(=O)N[C@@H](Cc1c[nH]c4ccccc14)C(N)=O)[C@@H](C)O)CSSC[C@H](NC(=O)[C@H](CC(=O)O)NC(=O)[C@H](C)NC(=O)[C@H](Cc1c[nH]cn1)NC(=O)[C@H]([C@@H](C)O)NC(=O)[C@H](CO)NC3=O)C(=O)N2 [HpTx3, Heteropodatoxin3] (H-ECGTLFSGCSTHADCCEGFICKLWCRYERTW-NH2; disulfide 2-16, 9-21, 15-25)
- IC50 [1, 18]: 19.7 ± 0.49 µM
- selectivity for Nav1.7 over Nav1.2 ([1]; ratio of IC50): 145 fold
- inhibition at 1 µM [2]: 46%
- IC50 [3, 18]: 14.1 ± 2.5 µM
- selectivity for Nav1.7 over Nav1.3 ([3]; ratio of IC50): 104 fold
- IC50 ([4]; HEK293T, mean ± SD, n = 6): 3.13 ± 2.6 µM
- inhibition at 1 µM ([4]; HEK-293T, 1 μM HpTx3, HEK293T, n = 6, read-out: inhibition of Nav1.7 D816N current): 23.7%
- IC50 difference Nav1.7 D816N versus wild type Nav1.7 ([4]; ratio of IC50): 23 fold
- inhibition of hERG channel current [5]: about 40%
- course of symptoms ([6]; after 5 min and after 10 min): the symptoms became gradually weaker and disappeared completely after 10 min
- symptoms after injection ([6]; within 5 min after injection): some discomfort symptoms such as body curling and writhing
- inhibition at 1 µM ([7]; HEK-293T, 1 μM HpTx3, HEK293T, whole-cell patch-clamp, n = 4–6, read-out: inhibition of Nav1.5 currents): 12.8%
- selectivity for Nav1.7 over Nav1.5 ([7]; ratio of IC50): 122 fold
- IC50 [8, 18]: 18.5 ± 0.21 µM
- selectivity for Nav1.7 over Nav1.4 ([8]; ratio of IC50): 136 fold
- IC50 [9]: 0.136 ± 0.013 µM

Molecule: O=C1[O][Pt]2([NH][C@@H]3CCCC[C@H]3[NH]2)[O]C1=O [Oxaliplatin]
- effect on nociceptive neuron excitability [10]: increases nociceptive neuron excitability to result in neuropathic pain

Molecule: CN1CC[C@]23c4c5ccc(O)c4O[C@H]2[C@@H](O)C=C[C@H]3[C@H]1C5 [morphine]
- time of strongest analgesic effect after injection, CFA [11]: 0.5 h
- paw withdrawal threshold, CFA ([11]; control 0.71 g, n = 8): 1.05 g
- time of most analgesic effect after injection, hot plate [12]: 0.5 h
- average paw withdrawal latency, hot plate ([12]; 55 ± 1 °C, control 5.93 s, n = 8): 11.03 s
- total paw licking time, phase I ([13]; 0–10 min after formalin, control 248 s): 99 s
- total paw licking time, phase II ([13]; 15–35 min after formalin, control 572.7 s): 134.3 s
- average paw withdrawal threshold, SNI [14]: 1.05 g

Molecule: HwTx-IV: Nav1.7-targeting peptide toxin
- alteration in voltage-dependence of activation and steady-state inactivation of Nav1.7 [15, 19]: less than 5 mV
- effect on I-V relationship for Nav1.7 [15, 19]: do not alter the I-V relationship

Molecule: ProTx-II: typical gating modifier toxin
- shift of Nav1.7 channel activation in the depolarizing direction [15]: 31.1 mV
- inhibition of sodium channel subtypes [16]: can inhibit multiple sodium channel subtypes (Nav1.1–1.8), but preferentially inhibits hNav1.7
- efficacy in rodent models of acute and inflammatory pain [17]: not efficacious
